How the values were obtained:
Settings in all cases: compound at 10 μM
Human neurokinin (NK1) = molecular target: T1, Human neurokinin (NK1) (Homo sapiens, UniProt P25103); assay: Radioligand binding, human neurokinin NK1 membranes, filtration, [125I]-Substance P
T1 construct: purchased Perkin Elmer Biosignal
Summary of the method: (§1)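 Filtration binding on cloned human receptor membranes (1 Unit/well), [125I]-Substance P for NK1 and [3H]-Diprenorphine for KOP, 1 h at room temperature. Filters PEI-presoaked, washed with cold 50 mM Tris-HCl pH 7.4, counted by scintillation; percent inhibition calculated, reference ligand defining non-specific binding.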

Human δ-opioid (DOP) = molecular target: T2, Human δ-opioid (DOP) (Homo sapiens, UniProt P41143); assay: Radioligand binding, human δ-opioid (DOP) membranes, FlashPlate, [3H]-Bremazocine
T2 construct: purchased Perkin Elmer Biosignal
Summary of the method: (§2)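 Cloned human receptor membranes were coated onto FlashPlate wells and incubated with radioligand and compound (added from a 0.5 mM DMSO daughter plate) for 1 hour at room temperature in the dark. Scintillation counting gave percent inhibition, with DMSO defining total and reference ligand defining non-specific binding.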

Mouse urotensin (mUR2) = molecular target: T3, Mouse urotensin (mUR2) (Mus musculus, UniProt Q8VIH9); assay: Radioligand binding, mouse urotensin mUR2 membranes, FlashPlate, [125I]-Urotensin II
T3 construct: purchased Perkin Elmer Biosignal
T3 sequence (Q8VIH9 1-385): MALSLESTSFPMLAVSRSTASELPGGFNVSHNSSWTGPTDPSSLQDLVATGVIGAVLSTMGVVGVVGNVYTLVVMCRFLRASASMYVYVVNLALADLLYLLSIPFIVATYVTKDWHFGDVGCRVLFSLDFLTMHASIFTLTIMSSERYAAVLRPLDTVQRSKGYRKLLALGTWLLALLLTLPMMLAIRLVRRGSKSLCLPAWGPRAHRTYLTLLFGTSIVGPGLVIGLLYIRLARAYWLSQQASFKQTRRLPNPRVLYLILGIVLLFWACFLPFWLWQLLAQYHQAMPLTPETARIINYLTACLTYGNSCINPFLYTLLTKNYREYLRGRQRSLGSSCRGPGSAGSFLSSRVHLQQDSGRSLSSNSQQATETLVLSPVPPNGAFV
Summary of the method: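 Cloned mouse urotensin (mUR2) receptor membranes from Perkin Elmer Biosignal were immobilized in FlashPlate microplates using a proprietary coating. Each well got 19.5 μl buffer, then 0.5 μl of DMSO, reference ligand, or compound. Adding 5 μl of [125I]-Urotensin II, diluted to 5× final concentration in binding buffer, started binding. Plates were sealed with TopSeal-A and incubated 1 hour at room temperature in the dark. Wells were counted for 30 seconds each on a TopCount after a 60-second delay, and percentage inhibition was calculated.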

[1] = molecular target: T4, Human neuropeptide Y (NPY-Y1) (Homo sapiens, UniProt P25929); assay: Radioligand binding, human neuropeptide Y NPY-Y1 membranes, FlashPlate, [125I]-PYY
T4 construct: purchased Perkin Elmer Biosignal
T4 sequence (P25929 1-384): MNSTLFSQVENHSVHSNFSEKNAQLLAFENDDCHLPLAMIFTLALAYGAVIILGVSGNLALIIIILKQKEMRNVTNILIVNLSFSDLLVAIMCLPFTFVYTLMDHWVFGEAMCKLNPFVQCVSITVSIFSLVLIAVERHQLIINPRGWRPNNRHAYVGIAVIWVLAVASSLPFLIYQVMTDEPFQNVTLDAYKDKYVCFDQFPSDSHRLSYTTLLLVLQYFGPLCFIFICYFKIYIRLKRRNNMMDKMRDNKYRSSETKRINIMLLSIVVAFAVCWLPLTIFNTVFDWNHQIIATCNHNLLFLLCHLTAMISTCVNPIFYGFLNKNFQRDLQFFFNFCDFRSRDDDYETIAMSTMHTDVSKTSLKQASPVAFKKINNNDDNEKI
Summary of the method: as §2

Human μ-opioid (MOP) = molecular target: T5, Human μ-opioid (MOP) (Homo sapiens, UniProt P35372); assay: Radioligand binding, human μ-opioid (MOP) membranes, FlashPlate, [3H]-Naloxone
T5 construct: purchased Perkin Elmer Biosignal
Summary of the method: as §2

Human opioid (ORL1) = molecular target: T6, Human opioid (ORL1) (Homo sapiens, UniProt P41146); assay: Radioligand binding, human opioid ORL1 membranes, FlashPlate, [125I]-Nociceptin
T6 construct: purchased Perkin Elmer Biosignal
Summary of the method: as §2

Human melanocortin (MC5) = molecular target: T7, Human melanocortin (MC5) (Homo sapiens, UniProt P33032); assay: Radioligand binding, human melanocortin MC5 membranes, FlashPlate, [125I]-NDP-αMSH
T7 construct: purchased Perkin Elmer Biosignal
Summary of the method: as §2

Human κ-Opioid (KOP) = molecular target: T8, Human κ-Opioid (KOP) (Homo sapiens, UniProt P41145); assay: Radioligand binding, human κ-opioid (KOP) membranes, filtration, [3H]-Diprenorphine
T8 construct: purchased Perkin Elmer Biosignal
Summary of the method: as §1

[2] = molecular target: T9, Human melanin-concentrating hormone (MCH1) (Homo sapiens, UniProt Q99705); assay: Radioligand binding, human melanin-concentrating hormone MCH1 membranes, FlashPlate, [125I]-S36057
T9 construct: purchased Perkin Elmer Biosignal
Summary of the method: as §2

Human Melanocortin (MC3) = molecular target: T10, Human Melanocortin (MC3) (Homo sapiens, UniProt P41968); assay: Radioligand binding, human melanocortin MC3 membranes, FlashPlate, [125I]-NDP-αMSH
T10 construct: purchased Perkin Elmer Biosignal
Summary of the method: as §2

Human Melanocortin (MC4) = molecular target: T11, Human Melanocortin (MC4) (Homo sapiens, UniProt P32245); assay: Radioligand binding, human melanocortin MC4 membranes, FlashPlate, [125I]-NDP-αMSH
T11 construct: purchased Perkin Elmer Biosignal
Summary of the method: as §2

[3] = [125I]-Substance P, human NK1 membranes
[4] = [3H]-Bremazocine, human DOP membranes
[5] = [125I]-Urotensin II, mouse mUR2 membranes
[6] = [125I]-PYY, human NPY-Y1 membranes
[7] = [125I]-NDP-αMSH, human MC5 membranes
[8] = [3H]-Diprenorphine, human KOP membranes

T10 sequence (P41968 whole entry): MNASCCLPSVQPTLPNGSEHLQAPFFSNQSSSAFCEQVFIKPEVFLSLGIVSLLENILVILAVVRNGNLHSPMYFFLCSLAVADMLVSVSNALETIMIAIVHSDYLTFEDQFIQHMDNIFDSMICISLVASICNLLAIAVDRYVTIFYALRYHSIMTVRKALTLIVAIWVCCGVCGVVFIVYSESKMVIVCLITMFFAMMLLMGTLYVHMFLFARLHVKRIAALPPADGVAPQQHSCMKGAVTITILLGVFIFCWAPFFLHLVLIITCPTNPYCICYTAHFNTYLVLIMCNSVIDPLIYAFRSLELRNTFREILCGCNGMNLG
T1 sequence (P25103 whole entry): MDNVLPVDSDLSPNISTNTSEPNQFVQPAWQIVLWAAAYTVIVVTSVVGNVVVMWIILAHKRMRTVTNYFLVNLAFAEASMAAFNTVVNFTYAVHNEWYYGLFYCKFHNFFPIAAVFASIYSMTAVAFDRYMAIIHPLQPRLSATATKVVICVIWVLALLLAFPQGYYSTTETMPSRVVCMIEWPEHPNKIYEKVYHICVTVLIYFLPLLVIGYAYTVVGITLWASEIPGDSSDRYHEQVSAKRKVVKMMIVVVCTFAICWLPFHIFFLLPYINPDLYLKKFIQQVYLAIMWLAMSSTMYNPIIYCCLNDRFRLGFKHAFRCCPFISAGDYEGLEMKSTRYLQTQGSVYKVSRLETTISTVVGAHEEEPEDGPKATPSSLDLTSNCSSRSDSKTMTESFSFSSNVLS
T8 sequence (P41145 whole entry): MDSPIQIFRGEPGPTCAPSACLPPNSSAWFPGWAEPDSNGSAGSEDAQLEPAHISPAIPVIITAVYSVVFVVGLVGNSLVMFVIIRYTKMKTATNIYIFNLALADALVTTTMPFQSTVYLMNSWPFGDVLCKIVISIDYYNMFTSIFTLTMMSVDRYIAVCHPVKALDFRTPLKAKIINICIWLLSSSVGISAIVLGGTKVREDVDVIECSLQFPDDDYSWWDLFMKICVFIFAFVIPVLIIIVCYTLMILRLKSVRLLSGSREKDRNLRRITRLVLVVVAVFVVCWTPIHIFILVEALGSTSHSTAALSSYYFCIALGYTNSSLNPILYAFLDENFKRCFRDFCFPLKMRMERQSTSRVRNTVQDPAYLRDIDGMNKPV
T11 sequence (P32245 whole entry): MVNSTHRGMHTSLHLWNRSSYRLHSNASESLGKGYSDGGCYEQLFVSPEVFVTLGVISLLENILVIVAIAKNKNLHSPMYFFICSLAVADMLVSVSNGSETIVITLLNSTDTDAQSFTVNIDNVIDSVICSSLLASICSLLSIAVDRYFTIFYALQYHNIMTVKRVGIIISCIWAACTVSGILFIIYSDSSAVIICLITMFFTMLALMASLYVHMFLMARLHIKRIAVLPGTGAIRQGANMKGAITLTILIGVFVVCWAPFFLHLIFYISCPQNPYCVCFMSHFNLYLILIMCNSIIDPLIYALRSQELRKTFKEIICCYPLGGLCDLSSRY
T9 sequence (Q99705 whole entry): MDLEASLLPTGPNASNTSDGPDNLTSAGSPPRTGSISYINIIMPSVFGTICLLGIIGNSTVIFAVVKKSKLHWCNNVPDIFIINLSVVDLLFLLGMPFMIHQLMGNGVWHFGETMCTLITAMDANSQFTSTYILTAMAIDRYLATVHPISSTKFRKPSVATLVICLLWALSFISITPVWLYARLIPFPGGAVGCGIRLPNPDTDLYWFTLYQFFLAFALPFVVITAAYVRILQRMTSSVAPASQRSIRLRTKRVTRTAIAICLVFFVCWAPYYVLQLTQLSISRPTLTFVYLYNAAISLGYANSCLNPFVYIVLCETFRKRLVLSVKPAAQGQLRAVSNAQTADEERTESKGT
T6 sequence (P41146 whole entry): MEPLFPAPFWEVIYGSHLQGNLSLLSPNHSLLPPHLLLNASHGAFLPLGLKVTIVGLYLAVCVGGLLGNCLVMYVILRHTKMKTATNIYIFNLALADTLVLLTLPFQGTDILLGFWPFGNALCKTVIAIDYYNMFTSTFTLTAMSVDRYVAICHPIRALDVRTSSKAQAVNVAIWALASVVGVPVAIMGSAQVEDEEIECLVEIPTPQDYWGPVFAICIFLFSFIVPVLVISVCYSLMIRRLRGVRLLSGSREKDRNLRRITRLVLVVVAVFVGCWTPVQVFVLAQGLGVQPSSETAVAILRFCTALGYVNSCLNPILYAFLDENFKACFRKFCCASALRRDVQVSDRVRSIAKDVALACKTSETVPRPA
T2 sequence (P41143 whole entry): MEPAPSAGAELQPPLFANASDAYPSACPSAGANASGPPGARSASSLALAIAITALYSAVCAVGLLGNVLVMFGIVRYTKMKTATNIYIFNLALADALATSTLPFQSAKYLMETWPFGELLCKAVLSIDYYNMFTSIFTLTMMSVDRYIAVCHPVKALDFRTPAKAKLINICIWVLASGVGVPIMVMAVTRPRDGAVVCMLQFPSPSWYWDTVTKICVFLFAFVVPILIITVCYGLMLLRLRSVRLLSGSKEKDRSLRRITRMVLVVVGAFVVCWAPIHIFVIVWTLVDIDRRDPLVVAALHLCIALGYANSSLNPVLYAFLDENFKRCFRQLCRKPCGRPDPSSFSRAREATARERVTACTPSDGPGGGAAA
T7 sequence (P33032 whole entry): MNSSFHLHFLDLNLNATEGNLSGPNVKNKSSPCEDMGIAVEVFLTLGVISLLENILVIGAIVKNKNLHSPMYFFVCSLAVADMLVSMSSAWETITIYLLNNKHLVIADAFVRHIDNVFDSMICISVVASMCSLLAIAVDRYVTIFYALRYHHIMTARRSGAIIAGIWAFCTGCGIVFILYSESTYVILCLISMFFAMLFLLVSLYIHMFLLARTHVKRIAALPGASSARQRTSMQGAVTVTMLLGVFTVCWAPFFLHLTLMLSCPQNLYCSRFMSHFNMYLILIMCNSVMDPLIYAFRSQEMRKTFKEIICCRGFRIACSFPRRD
T5 sequence (P35372 whole entry): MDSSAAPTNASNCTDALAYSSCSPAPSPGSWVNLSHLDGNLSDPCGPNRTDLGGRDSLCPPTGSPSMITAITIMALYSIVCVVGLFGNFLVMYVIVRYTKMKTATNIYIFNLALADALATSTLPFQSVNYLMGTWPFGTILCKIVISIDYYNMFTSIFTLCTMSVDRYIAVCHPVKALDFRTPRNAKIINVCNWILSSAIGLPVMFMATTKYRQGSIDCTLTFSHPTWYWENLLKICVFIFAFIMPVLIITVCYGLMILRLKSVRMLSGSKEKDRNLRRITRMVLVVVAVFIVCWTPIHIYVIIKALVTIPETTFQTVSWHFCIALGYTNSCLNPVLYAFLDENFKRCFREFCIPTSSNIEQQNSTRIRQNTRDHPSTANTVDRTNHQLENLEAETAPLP

N=C(N)NCC(=O)NC1C(OCc2ccc(Cl)cc2)OC(COCc2ccc3ccccc3c2)C(O)C1OCc1ccc(Cl)cc1 (stereo not shown) [compound 417]
A8: inhibition of radioligand binding (Human neurokinin (NK1); [3]): + (“+” indicates greater than 50% inhibition at 10 μM) | A1: inhibition of radioligand binding (Human δ-opioid (DOP); [4]): − (“−” indicates less than 50% inhibition at 10 μM) | A11: inhibition of radioligand binding (Mouse urotensin (mUR2); [5]): − (“−” indicates less than 50% inhibition at 10 μM) | A9: inhibition of radioligand binding [1, 6]: − (“−” indicates less than 50% inhibition at 10 μM) | A7: inhibition of radioligand binding (Human μ-opioid (MOP); [3H]-Naloxone, human MOP membranes): − (“−” indicates less than 50% inhibition at 10 μM) | A10: inhibition of radioligand binding (Human opioid (ORL1); [125I]-Nociceptin, human ORL1 membranes): − (“−” indicates less than 50% inhibition at 10 μM) | A5: inhibition of radioligand binding (Human melanocortin (MC5); [7]): + (“+” indicates greater than 50% inhibition at 10 μM) | A2: inhibition of radioligand binding (Human κ-Opioid (KOP); [8]): − (“−” indicates less than 50% inhibition at 10 μM) | A6: inhibition of radioligand binding ([2]; [125I]-S36057, human MCH1 membranes): + (“+” indicates greater than 50% inhibition at 10 μM) | A3: inhibition of radioligand binding (Human Melanocortin (MC3); [125I]-NDP-αMSH, human MC3 membranes): + (“+” indicates greater than 50% inhibition at 10 μM) | A4: inhibition of radioligand binding (Human Melanocortin (MC4); [125I]-NDP-αMSH, human MC4 membranes): + (“+” indicates greater than 50% inhibition at 10 μM)

COCC1OC(OCc2ccc(Cl)cc2)C(NC(=O)CCCN)C(OCc2ccc(Cl)cc2)C1O (stereo not shown) [compound 203]
A8: inhibition of radioligand binding (Human neurokinin (NK1); [125I]-Substance P, filtration): + (“+” indicates greater than 50% inhibition at 10 μM) | A1: inhibition of radioligand binding (Human δ-opioid (DOP); [3H]-Bremazocine, FlashPlate): − (“−” indicates less than 50% inhibition at 10 μM) | A11: inhibition of radioligand binding (Mouse urotensin (mUR2); [125I]-Urotensin II, FlashPlate): − (“−” indicates less than 50% inhibition at 10 μM) | A9: inhibition of radioligand binding ([1]; [125I]-PYY, FlashPlate): − (“−” indicates less than 50% inhibition at 10 μM) | A7: inhibition of radioligand binding (Human μ-opioid (MOP); [3H]-Naloxone, FlashPlate): − (“−” indicates less than 50% inhibition at 10 μM) | A10: inhibition of radioligand binding (Human opioid (ORL1); [125I]-Nociceptin, FlashPlate): − (“−” indicates less than 50% inhibition at 10 μM) | A5: inhibition of radioligand binding (Human melanocortin (MC5); [125I]-NDP-αMSH, FlashPlate): + (“+” indicates greater than 50% inhibition at 10 μM) | A2: inhibition of radioligand binding (Human κ-Opioid (KOP); [3H]-Diprenorphine, filtration): − (“−” indicates less than 50% inhibition at 10 μM) | A6: inhibition of radioligand binding ([2]; [125I]-S36057, FlashPlate): − (“−” indicates less than 50% inhibition at 10 μM) | A3: inhibition of radioligand binding (Human Melanocortin (MC3); [125I]-NDP-αMSH, FlashPlate): − (“−” indicates less than 50% inhibition at 10 μM) | A4: inhibition of radioligand binding (Human Melanocortin (MC4); [125I]-NDP-αMSH, FlashPlate): − (“−” indicates less than 50% inhibition at 10 μM)

NCCCC(=O)NC1C(OCc2ccc3ccccc3c2)OC(COCc2ccc3ccccc3c2)C(O)C1OCc1ccc2ccccc2c1 (single isomer, unassigned) [compound 461]
A8: inhibition of radioligand binding (Human neurokinin (NK1); [3]): + (“+” indicates greater than 50% inhibition at 10 μM) | A1: inhibition of radioligand binding (Human δ-opioid (DOP); [4]): − (“−” indicates less than 50% inhibition at 10 μM) | A11: inhibition of radioligand binding (Mouse urotensin (mUR2); [5]): − (“−” indicates less than 50% inhibition at 10 μM) | A9: inhibition of radioligand binding [1, 6]: − (“−” indicates less than 50% inhibition at 10 μM) | A7: inhibition of radioligand binding (Human μ-opioid (MOP); [3H]-Naloxone, human MOP membranes, 10 µM): + (“+” indicates greater than 50% inhibition at 10 μM) | A10: inhibition of radioligand binding (Human opioid (ORL1); [125I]-Nociceptin, human ORL1 membranes, 10 µM): + (“+” indicates greater than 50% inhibition at 10 μM) | A5: inhibition of radioligand binding (Human melanocortin (MC5); [7]): + (“+” indicates greater than 50% inhibition at 10 μM) | A2: inhibition of radioligand binding (Human κ-Opioid (KOP); [8]): − (“−” indicates less than 50% inhibition at 10 μM) | A6: inhibition of radioligand binding ([2]; [125I]-S36057, human MCH1 membranes, 10 µM): + (“+” indicates greater than 50% inhibition at 10 μM) | A3: inhibition of radioligand binding (Human Melanocortin (MC3); [125I]-NDP-αMSH, human MC3 membranes, 10 µM): + (“+” indicates greater than 50% inhibition at 10 μM) | A4: inhibition of radioligand binding (Human Melanocortin (MC4); [125I]-NDP-αMSH, human MC4 membranes, 10 µM): + (“+” indicates greater than 50% inhibition at 10 μM)

COC[C@H]1OC(OCc2ccc(-c3ccccc3)cc2)[C@H](NC(=O)CCNC(=N)N)[C@@H](OCc2ccc3ccccc3c2)[C@@H]1O (stereo partly shown) [compound 4]
A8 radioligand binding inhibition (Human neurokinin (NK1); human neurokinin NK1 membranes): + (“+” indicates greater than 50% inhibition at 10 μM) | A1 radioligand binding inhibition (Human δ-opioid (DOP); human δ-opioid (DOP) membranes): − (“−” indicates less than 50% inhibition at 10 μM) | A11 radioligand binding inhibition (Mouse urotensin (mUR2); mouse urotensin mUR2 membranes): − (“−” indicates less than 50% inhibition at 10 μM) | A9 radioligand binding inhibition ([1]; human NPY-Y1 membranes): − (“−” indicates less than 50% inhibition at 10 μM) | A7 radioligand binding inhibition (Human μ-opioid (MOP); human μ-opioid (MOP) membranes): − (“−” indicates less than 50% inhibition at 10 μM) | A10 radioligand binding inhibition (Human opioid (ORL1); human ORL1 membranes): − (“−” indicates less than 50% inhibition at 10 μM) | A5 radioligand binding inhibition (Human melanocortin (MC5); human melanocortin MC5 membranes): + (“+” indicates greater than 50% inhibition at 10 μM) | A2 radioligand binding inhibition (Human κ-Opioid (KOP); human κ-opioid (KOP) membranes): − (“−” indicates less than 50% inhibition at 10 μM) | A6 radioligand binding inhibition ([2]; human MCH1 membranes): + (“+” indicates greater than 50% inhibition at 10 μM) | A3 radioligand binding inhibition (Human Melanocortin (MC3); human melanocortin MC3 membranes): − (“−” indicates less than 50% inhibition at 10 μM) | A4 radioligand binding inhibition (Human Melanocortin (MC4); human melanocortin MC4 membranes): − (“−” indicates less than 50% inhibition at 10 μM)

CO[C@H]1[C@H](O)[C@@H](COCc2ccccc2)OC(OCc2ccc(Cl)cc2)[C@@H]1NC(=O)CNC(=N)N (stereo partly shown) [compound 101]
A8 radioligand binding, percentage inhibition (Human neurokinin (NK1); [125I]-Substance P): − (“−” indicates less than 50% inhibition at 10 μM) | A1 radioligand binding, percentage inhibition (Human δ-opioid (DOP); [3H]-Bremazocine): − (“−” indicates less than 50% inhibition at 10 μM) | A11 radioligand binding, percentage inhibition (Mouse urotensin (mUR2); [125I]-Urotensin II): − (“−” indicates less than 50% inhibition at 10 μM) | A9 radioligand binding, percentage inhibition ([1]; [125I]-PYY): − (“−” indicates less than 50% inhibition at 10 μM) | A7 radioligand binding, percentage inhibition (Human μ-opioid (MOP); [3H]-Naloxone): − (“−” indicates less than 50% inhibition at 10 μM) | A10 radioligand binding, percentage inhibition (Human opioid (ORL1); [125I]-Nociceptin): − (“−” indicates less than 50% inhibition at 10 μM) | A5 radioligand binding, percentage inhibition (Human melanocortin (MC5); [125I]-NDP-αMSH): + (“+” indicates greater than 50% inhibition at 10 μM) | A2 radioligand binding, percentage inhibition (Human κ-Opioid (KOP); [3H]-Diprenorphine): − (“−” indicates less than 50% inhibition at 10 μM) | A6 radioligand binding, percentage inhibition ([2]; [125I]-S36057): − (“−” indicates less than 50% inhibition at 10 μM) | A3 radioligand binding, percentage inhibition (Human Melanocortin (MC3); [125I]-NDP-αMSH): − (“−” indicates less than 50% inhibition at 10 μM) | A4 radioligand binding, percentage inhibition (Human Melanocortin (MC4); [125I]-NDP-αMSH): − (“−” indicates less than 50% inhibition at 10 μM)

— patent US20080009418A1, “Selective Inhibitors” (Alchemia LTD., priority 2004, published 2008)
